Read-outs that look alike come from different tables or passages of the source.
Target: MAT2A (Homo sapiens (Human), UniProt P31153)
Experiment: MAT2A biochemical test (inorganic phosphate colorimetric, PiColorLock)
Conditions: read-out: MAT2A inhibitory Activity IC50
Text: Test Example 1. Biochemical Test
The brief introduction of the test principle: L-methionine and ATP can be converted into SAM, inorganic phosphate, and inorganic diphosphate under the catalysis of MAT2A enzymes. The content of inorganic phosphate in the sample can be quantitatively determined by adding a developer such as ammonium molybdate or the like to the enzymatic reaction mixture, thereby reflecting the enzymatic activity of MAT2A.
Reference: The experiment referred to the method disclosed in patent WO2018045071.
Material: MAT2A screening kits were purchased from BPS bioscience (U.S.); 384-well plates were purchased from Corning Company (U.S.). • 1. MAT2A protein (Pharmaron Beijing Co., Ltd.); • 2. L-methionine (Sigma #M9625-5G) • 3. ATP (Sigma #A7699-1G) • 4. KCl (Sigma #60142-500ML-F) • 5. Tris (Sigma #T2663-1L) • 6. MgCl2 (Sigma #M1028) • 7. EDTA (Invitrogen #AM9260G) • 8. BSA (Sangon Biotech #A500023-0100) • 9. PiColorLock (abcam #ab270004)
Detection method: In the experimental group, the test compound was dissolved in DMSO, diluted to a final concentration of 10 μM using Echo, and diluted 3-fold. 80 nL of the dilution was transferred to a 384-well plate.
The experimental buffer (50 mM Tris, 50 mM KCl, 15 mM MgCl2, 100 μM EDTA, 0.005% BSA) was prepared. The MAT2A protein was diluted with the experimental buffer (at final concentration of […]). 40 μL of 2×MAT2A solution was added to the 384-well plate. The plate was centrifuged at 1000 rpm for 1 min and incubated at room temperature for 120 min.
L-methionine and ATP (the final concentration of L-methionine was […] and the final concentration of ATP was 400 μM) were diluted with the experimental buffer. 40 μL of 2×L-methionine and ATP solution was added to initiate the reaction. The plate was centrifuged at 1000 rpm for 1 min and incubated at room temperature for 90 min.
The PiColorLock™ reaction catalyst was mixed with the PiColorLock™ buffer at a ratio of 1:100 according to the instructions. 20 μL was added to each well, and the plate was shaken for 30 s. 8 μL stabilizing reagent was added, and the plate was shaken for 30 s. The signal values were measured after 30 min of incubation at room temperature.
A negative control group and a positive control group were respectively used as Bottom and Top. The negative control group was not added with MAT2A protein, and other operations were consistent with those of the experimental group. The positive control group was not added with the test compound, only added with DMSO in the same volume, and other operations were consistent with those of the experimental group.
The % Compound inhibition was calculated and fitted to give the IC50 of the compound.
% Compound inhibition=1-100%×(Signal−Bottom)/(Top−Bottom).
Signal referred to the signal value of the experimental group, Bottom referred to the average signal value of the negative control group, and Top referred to the average signal value of the positive control group.
Under the condition of this experiment, the inhibitory effect of the test compound on MAT2A can be expressed as the IC50 of the inhibition on the phosphate production level during the enzymatic reaction.

Sequence of MAT2A (P31153 whole entry): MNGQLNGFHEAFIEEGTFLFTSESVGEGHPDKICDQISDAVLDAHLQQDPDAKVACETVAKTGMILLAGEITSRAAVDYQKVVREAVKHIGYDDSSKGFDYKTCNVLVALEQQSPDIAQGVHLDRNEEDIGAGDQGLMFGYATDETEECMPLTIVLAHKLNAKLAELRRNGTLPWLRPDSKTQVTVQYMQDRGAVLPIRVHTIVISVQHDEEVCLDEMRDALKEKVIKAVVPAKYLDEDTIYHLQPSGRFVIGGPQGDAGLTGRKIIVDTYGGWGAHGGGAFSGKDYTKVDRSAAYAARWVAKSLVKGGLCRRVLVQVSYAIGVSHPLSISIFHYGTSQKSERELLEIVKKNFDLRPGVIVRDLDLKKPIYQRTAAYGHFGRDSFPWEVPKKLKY

Structure (SMILES)	IC50 (class symbols) [nM]	IC50 (numeric values) [nM]
Cn1cnc2c(=O)n(-c3cccnc3C3CC3)c3cc(C(F)(F)F)ccc3c21 (atropisomer, axis not shown) [Compound 48, 5-(2-cyclopropylpyridin-3-yl)-1-methyl-7-(trifluoromethyl)-1,5-dihydro-4H-imidazo[4,5-c]quinolin-4-one]	< 100	36
Cn1cnc2c(=O)n(-c3ccccc3C(F)(F)F)c3nc(C(F)(F)F)ccc3c21 (single isomer, unassigned) [Compound 57-P2, 1-methyl-7-(trifluoromethyl)-5-(2-(trifluoromethyl)phenyl)-1,5-dihydro-4H-imidazo[4,5-c][1,8]naphthyridin-4-one]	< 100	42
Cn1cnc2c(=O)n(-c3ccc(OC(F)F)cc3Cl)c3nc(C(F)(F)F)ccc3c21 (single isomer, unassigned) [Compound 58-P2, 5-(2-chloro-4-(difluoromethoxy)phenyl)-1-methyl-7-(trifluoromethyl)-1,5-dihydro-4H-imidazo[4,5-c][1,8]naphthyridin-4-one]	< 100	90.8
CCc1ncccc1-n1c(=O)c2ncn(C)c2c2ccc(C(F)(F)F)nc21 (single isomer, unassigned) [Compound 67-P2, 5-(2-ethylpyridin-3-yl)-1-methyl-7-(trifluoromethyl)-1,5-dihydro-4H-imidazo[4,5-c][1,8]naphthyridin-4-one]	< 100	41.4
C#Cc1cccc(-n2c(=O)c3ncn(C)c3c3ccc(C(F)(F)F)nc32)c1Cl (single isomer, unassigned) [Compound 80-P2, 5-(2-chloro-3-ethynylphenyl)-1-methyl-7-(trifluoromethyl)-1,5-dihydro-4H-imidazo[4,5-c][1,8]naphthyridin-4-one]	< 100	32.5
O=c1c2ncoc2c2ccc(C(F)(F)F)cc2n1-c1cccnc1C1CC1 (single isomer, unassigned) [Compound 85-P2, 5-(2-cyclopropylpyridin-3-yl)-7-(trifluoromethyl)oxazolo[4,5-c]quinolin-4(5H)-one]	< 100	33.6
O=c1c2ncoc2c2ccc(C(F)(F)F)nc2n1-c1cccnc1C(F)(F)F (single isomer, unassigned) [Compound 86-P2, 7-trifluoromethyl-5-(2-trifluoromethylpyridin-3-yl)oxazolo[4,5-c][1,8]naphthyridin-4(5H)-one]	< 100	25
O=c1c2ncn(C(F)F)c2c2ccc(Cl)cc2n1-c1cccnc1C1CC1 (single isomer, unassigned) [Compound 87-P2, 7-chloro-5-(2-cyclopropylpyridin-3-yl)-1-difluoromethyl-1,5-dihydro-4H-imidazo[4,5-c]quinolin-4-one]	< 100	38.7
O=c1[nH]c2c(=O)n(-c3ccccc3Cl)c3nc(C(F)(F)F)ccc3c2[nH]1 [Compound 4, 5-(2-chlorophenyl)-7-(trifluoromethyl)-3,5-dihydro-1H-imidazo[4,5-c][1,8]naphthyridine-2,4-dione]	< 100	69.6
O=c1c2cn[nH]c2c2ccc(C(F)(F)F)nc2n1-c1ccccc1Cl [Compound 7, 5-(2-chlorophenyl)-7-(trifluoromethyl)-1,5-dihydro-4H-pyrazolo[4,3-c][1,8]naphthyridin-4-one]	100 to 500	128
O=c1c2ncoc2c2ccc(C(F)(F)F)nc2n1-c1ccccc1Cl [Compound 8, 5-(2-chlorophenyl)-7-(trifluoromethyl)oxazolo[4,5-c][1,8]naphthyridin-4(5H)-one]	< 100	64.4
CCOc1ccc2c3[nH]c(=O)[nH]c3c(=O)n(-c3ccc(OC(F)F)cc3)c2n1 [Compound 10, 5-(4-(difluoromethoxy)phenyl)-7-ethoxy-3,5-dihydro-1H-imidazo[4,5-c][1,8]naphthyridine-2,4-dione]	< 100	33
CCOc1ccc2c3[nH]c(OC)nc3c(=O)n(-c3ccc(OC(F)F)cc3)c2n1 [Compound 11, 5-(4-(difluoromethoxy)phenyl)-7-ethoxy-2-methoxy-1,5-dihydro-4H-imidazo[4,5-c][1,8]naphthyridin-4-one]	< 100	56.6
Cn1cc2c(n1)c(=O)n(-c1ccc(OC(F)F)cc1)c1nc(C(F)(F)F)ccc21 [Compound 12, 5-(4-(difluoromethoxy)phenyl)-2-methyl-7-(trifluoromethyl)-2,5-dihydro-4H-pyrazolo[3,4-c][1,8]naphthyridin-4-one]	100 to 500	102
CCOc1ccc2c3cn(C)nc3c(=O)n(-c3ccc(OC(F)F)cc3)c2n1 [Compound 13, 5-(4-(difluoromethoxy)phenyl)-7-ethoxy-2-methyl-2,5-dihydro-4H-pyrazolo[3,4-c][1,8]naphthyridin-4-one]	100 to 500	122
CCOc1ccc2c3c(ncn3C)c(=O)n(-c3ccc(OC(F)F)cc3)c2n1 [Compound 14, 5-(4-(difluoromethoxy)phenyl)-7-ethoxy-1-methyl-1,5-dihydro-4H-imidazo[4,5-c][1,8]naphthyridin-4-one]	< 100	46.4
Cn1cnc2c(=O)n(-c3ccc(OC(F)F)cc3)c3nc(C(F)(F)F)ccc3c21 [Compound 15, 5-(4-(difluoromethoxy)phenyl)-1-methyl-7-(trifluoromethyl)-1H-imidazo[4,5-c][1,8]naphthyridin-4(5H)-one]	< 100	38.5
O=c1c2ncoc2c2ccc(C(F)(F)F)nc2n1-c1ccc(OC(F)F)cc1 [Compound 16, 5-(4-(difluoromethoxy)phenyl)-7-(trifluoromethyl)oxazolo[4,5-c][1,8]naphthyridin-4(5H)-one]	100 to 500	122
O=c1c2ocnc2c2ccc(C(F)(F)F)nc2n1-c1ccc(OC(F)F)cc1 [Compound 18, 5-(4-(difluoromethoxy)phenyl)-7-(trifluoromethyl)oxazolo[5,4-c][1,8]naphthyridin-4(5H)-one]	100 to 500	442
Cn1cnc2c(=O)n(-c3ccc(Cl)cc3)c3nc(C(F)(F)F)ccc3c21 [Compound 19, 5-(4-chlorophenyl)-1-methyl-7-(trifluoromethyl)-1,5-dihydro-4H-imidazo[4,5-c][1,8]naphthyridin-4-one]	< 100	51.4
Cn1cnc2c(=O)n(-c3ccccc3)c3nc(C(F)(F)F)ccc3c21 [Compound 21, 1-methyl-5-phenyl-7-(trifluoromethyl)-1,5-dihydro-4H-imidazo[4,5-c][1,8]naphthyridin-4-one]	< 100	64.9
Cn1cnc2c(=O)n(-c3cccc(Cl)c3)c3nc(C(F)(F)F)ccc3c21 [Compound 22, 5-(3-chlorophenyl)-1-methyl-7-(trifluoromethyl)-1,5-dihydro-1H-imidazo[4,5-c][1,8]naphthyridin-4-one]	100 to 500	–
Cn1cnc2c(=O)n(-c3ccccc3F)c3nc(C(F)(F)F)ccc3c21 [Compound 23, 5-(2-fluorophenyl)-1-methyl-7-(trifluoromethyl)-1,5-dihydro-4H-imidazo[4,5-c][1,8]naphthyridin-4-one]	< 100	78.8
Cn1cnc2c(=O)n(-c3c(F)cccc3Cl)c3nc(C(F)(F)F)ccc3c21 [Compound 26, 5-(2-chloro-6-fluorophenyl)-1-methyl-7-(trifluoromethyl)-1,5-dihydro-4H-imidazo[4,5-c][1,8]naphthyridin-4-one]	100 to 500	135
Cc1cnccc1-n1c(=O)c2ncn(C)c2c2ccc(C(F)(F)F)nc21 [Compound 27, 1-methyl-5-(3-methylpyridin-4-yl)-7-(trifluoromethyl)-1,5-dihydro-4H-imidazo[4,5-c][1,8]naphthyridin-4-one]	500 to 1000	819
Cc1ccncc1-n1c(=O)c2ncn(C)c2c2ccc(C(F)(F)F)nc21 [Compound 28, 1-methyl-5-(4-methylpyridin-3-yl)-7-(trifluoromethyl)-1,5-dihydro-4H-imidazo[4,5-c][1,8]naphthyridin-4-one]	100 to 500	165

— US20240124454A1, “TRICYCLIC COMPOUND AND USE THEREOF” (NANJING ZAIMING PHARMACEUTICAL CO., LTD., priority 2020, published 2024)
